Measured values published in patent US10821115B2, “Compounds that inhibit Mcl-1 protein” (priority 2017, dated 2020).
Where two headings read alike, the source gives them in different places.

Columns and labels:
[1] = tested on: human multiple myeloma cell line, OPM-2; experiment: Cell viability assay (OPM-2 10 FBS), CellTiter-Glo; assay type: cell-based
How it was run: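 Serially diluted test compounds are incubated 16 h with cells (3000/well) in RPMI 1640 supplemented with 10% FBS. Viability is then measured by luminescence and IC50 calculated by 4-parameter logistic fit.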

[2] = target: recombinant human Mcl-1 (residues 171-327) / Bim interaction (Homo sapiens (Human), UniProt Q07820); experiment: biochemical; assay type: binding; conditions: read-out: Mcl-1 HTRF IC50
[3] = Homo sapiens, OPM-2, 16 h, read-out: OPM-2 10% FBS IC50 IP, OPM-2 cells, 10% FBS, 16 h, CellTiter-Glo
[4] = TR-FRET, Mcl-1(171-327) / biotin-Bim (51-76)
[5] = Homo sapiens, OPM-2, 16 h, read-out: OPM-2 10% FBS IC50 IP, OPM-2 cells, 10% FBS, 16 h incubation
[6] = 0.1 nM Mcl-1(171-327), 0.05 nM biotin-Bim (51-76)
[7] = read-out: OPM-2 10% FBS IC50 IP, OPM-2 cells, 10% FBS, 16 h, CellTiter-Glo

Sequence of recombinant human Mcl-1 (residues 171-327) / Bim interaction (Q07820 171-327): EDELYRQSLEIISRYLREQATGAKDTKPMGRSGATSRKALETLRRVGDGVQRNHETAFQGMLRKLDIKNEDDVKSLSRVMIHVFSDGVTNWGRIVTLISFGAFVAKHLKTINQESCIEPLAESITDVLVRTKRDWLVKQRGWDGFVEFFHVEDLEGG

Row | SMILES | IC50 [2, 4] | IC50 [1, 5] | IC50 [2, 6] | further results
1 | C[C@@H]1[C@@H](C)CCC[C@](C)(CN2CCOCC2)[C@@H]2CC[C@H]2CN2C[C@@]3(CCCc4cc(Cl)ccc43)COc3ccc(cc32)C(=O)NS1(=O)=O [Example 100302, (1S,3′R,6′R,7′S,11′S,12′R)-6-chloro-7′,11′,12′-trimethyl-7′-(4-morpholinylmethyl)-3,4-dihydro-2H,15′H-spiro[naphthalene-1,22′-[20]oxa[13]thia[1,14]diazatetracyclo [14.7.2.0~3,6~.0~19,24~]pentacosa[16,18,24]trien]-15′-one 13′,13′-dioxide] | 3.8 nM |  |  | IC50 [1, 3]: 4880 nM
2 | COCC(=O)N1CCN(C[C@]2(OC)/C=C/C[C@H](C)[C@@H](C)S(=O)(=O)NC(=O)c3ccc4c(c3)N(C[C@@H]3CC[C@H]32)C[C@@]2(CCCc3cc(Cl)ccc32)CO4)CC1 [Example 246, (1S,3′R,6′R,7′S,8′E,11′S,12′R)-6-chloro-7′-methoxy-7′-((4-(methoxyacetyl)-1-piperazinyl)methyl)-11′,12′-dimethyl-3,4-dihydro-2H,15′H-spiro[naphthalene-1,22′-[20]oxa[13]thia[1,14]diazatetracyclo [14.7.2.0~3,6~.0~19,24~]pentacosa[8,16,18,24]tetraen]-15′-one 13′,13′-dioxide] |  | 138 nM | 0.099 nM | 
3 | COCC[C@@H]1[C@@H](C)C/C=C/[C@](CN2CCN(C(C)(C)COC)CC2)(OC)[C@@H]2CC[C@H]2CN2C[C@@]3(CCCc4cc(Cl)ccc43)COc3ccc(nc32)C(=O)NS1(=O)=O [Example 27, (1S,3′R,6′R,7′S,8′E,11′S,12′R)-6-chloro-7′-methoxy-7′-((4-(2-methoxy-1,1-dimethylethyl)-1-piperazinyl)methyl)-12′-(2-methoxyethyl)-11′-methyl-3,4-dihydro-2H,15′H-spiro[naphthalene-1,22′-[20]oxa[13]thia[1,14,25]triazatetracyclo [14.7.2.0~3,6~.0~19,24~]pentacosa[8,16,18,24]tetraen]-15′-one 13′,13′-dioxide] |  | 29 nM | 0.095 nM | 
4 | CO[C@]1(CN2CCN3CCC(F)(F)C[C@H]3C2)/C=C/C[C@H](C)[C@@H](C)S(=O)(=O)NC(=O)c2ccc3c(c2)N(C[C@@H]2CC[C@H]21)C[C@@]1(CCCc2cc(Cl)ccc21)CO3 (single isomer, unassigned) [Example 299] |  |  | 0.367 nM | IC50 ([1]; read-out: OPM-2 10% FBS IC50 IP, OPM-2 cells, 10% FBS, 16 h incubation): 456 nM
5 | COC[C@@]1(O)CCC[C@H](C)[C@@H](C)S(=O)(=O)NC(=O)c2ccc3c(c2)N(C[C@@H]2CC[C@H]21)C[C@@]1(CCCc2cc(Cl)ccc21)CO3 [Example 100150, (1S,3′R,6′R,7′R,11′S,12′R)-6-chloro-7′-hydroxy-7′-(methoxymethyl)-11′,12′-dimethyl-3,4-dihydro-2H,15′H-spiro[naphthalene-1,22′-[20]oxa[13]thia[1,14]diazatetracyclo [14.7.2.0~3,6~.0~19,24~]pentacosa[16,18,24]trien]-15′-one 13′,13′-dioxide] | 1.69 nM |  |  | IC50 [1, 3]: 1430 nM
6 | CO[C@@]1(CN2CCOC3(COC3)C2)/C=C/C[C@H](C)[C@@H](C)S(=O)(=O)NC(=O)c2ccc3c(c2)N(C[C@@H]2CC[C@H]21)C[C@@]1(CCCc2cc(Cl)ccc21)CO3 [Example 198, (1S,3′R,6′R,7′S,8′E,11′S,12′R)-6-chloro-7′-(2,5-dioxa-8-azaspiro[3.5]non-8-ylmethyl)-7′-methoxy-11′,12′-dimethyl-3,4-dihydro-2H,15′H-spiro[naphthalene-1,22′-[20]oxa[13]thia[1,14]diazatetracyclo [14.7.2.0~3,6~.0~19,24~]pentacosa[8,16,18,24]tetraen]-15′-one 13′,13′-dioxide] |  | 1310 nM | 0.181 nM | 
7 | C[C@@H]1[C@@H](C)C/C=C/[C@](O)(Cc2nccs2)[C@@H]2CC[C@H]2CN2C[C@@]3(CCCc4cc(Cl)ccc43)COc3ccc(cc32)C(=O)NS1(=O)=O [Example 100246, (1S,3′R,6′R,7′R,8′E,11′S,12′R)-6-chloro-7′-hydroxy-11′,12′-dimethyl-7′-(1,3-thiazol-2-ylmethyl)-3,4-dihydro-2H,15′H-spiro[naphthalene-1,22′-[20]oxa[13]thia[1,14]diazatetracyclo [14.7.2.0~3,6~.0~19,24~]pentacosa[8,16,18,24]tetraen]-15′-one 13′,13′-dioxide] |  |  |  | IC50 [1, 7]: 114 nM; IC50 [2]: 0.326 nM
8 | CC#C[C@]1(O)CCC[C@H](C)[C@@H](C)S(=O)(=O)NC(=O)c2ccc3c(c2)N(C[C@@H]2CC[C@H]21)C[C@@]1(CCCc2cc(Cl)ccc21)CO3 [Example 100268, (1S,3′R,6′R,7′S,11′S,12′R)-6-chloro-7′-hydroxy-11′,12′-dimethyl-7′-(1-propyn-1-yl)-3,4-dihydro-2H,15′H-spiro[naphthalene-1,22′-[20]oxa[13]thia[1,14]diazatetracyclo [14.7.2.0~3,6~.0~19,24~]pentacosa[16,18,24]trien]-15′-one 13′,13′-dioxide] |  |  |  | IC50 [1, 7]: 3810 nM; IC50 [2]: 3.44 nM
9 | CCO[C@]1(CN2CCN(C(C)C)CC2)/C=C/C[C@H](C)[C@@H](C)S(=O)(=O)NC(=O)c2ccc3c(c2)N(C[C@@H]2CC[C@H]21)C[C@@]1(CCCc2cc(Cl)ccc21)CO3 [Example 114, (1S,3′R,6′R,7′R,8′E,11′S,12′R)-6-chloro-7′-ethoxy-11′,12′-dimethyl-7′-((4-(1-methylethyl)-1-piperazinyl)methyl)-3,4-dihydro-2H,15′H-spiro[naphthalene-1,22′-[20]oxa[13]thia[1,14]diazatetracyclo [14.7.2.0~3,6~.0~19,24~]pentacosa[8,16,18,24]tetraen]-15′-one 13′,13′-dioxide] |  | 68 nM | 0.104 nM | 
10 | CO[C@@]1(CC=O)/C=C/C[C@H](C)[C@@H](C)S(=O)(=O)NC(=O)c2ccc3c(c2)N(C[C@@H]2CC[C@H]21)C[C@@]1(CCCc2cc(Cl)ccc21)CO3 [Example 100323, ((1S,3′R,6′R,7′S,8′E,11′S,12′R)-6-chloro-7′-methoxy-11′,12′-dimethyl-13′,13′-dioxido-15′-oxo-3,4-dihydro-2H-spiro[naphthalene-1,22′-[20]oxa[13]thia[1,14]diazatetracyclo [14.7.2.0~3,6~.0~19,24~]pentacosa[8,16,18,24]tetraen]-7′-yl)acetaldehyde] | 0.477 nM |  |  | IC50 [1, 3]: 1250 nM
11 | CO[C@@]1(C[C@@H](C)O)/C=C/C[C@H](C)[C@@H](C)S(=O)(=O)NC(=O)c2ccc3c(c2)N(C[C@@H]2CC[C@H]21)C[C@@]1(CCCc2cc(Cl)ccc21)CO3 [Example 100435, (1S,3′R,6′R,7′S,8′E,11′S,12′R)-6-chloro-7′-((2R)-2-hydroxypropyl)-7′-methoxy-11′,12′-dimethyl-3,4-dihydro-2H,15′H-spiro[naphthalene-1,22′-[20]oxa[13]thia[1,14]diazatetracyclo [14.7.2.0~3,6~.0~19,24~]pentacosa[8,16,18,24]tetraen]-15′-one 13′,13′-dioxide] | 0.055 nM |  |  | IC50 [1, 3]: 305 nM
12 | CCCN1CCN(C[C@@]2(OCC)/C=C/C[C@H](C)[C@@H](C)S(=O)(=O)NC(=O)c3ccc4c(c3)N(C[C@@H]3CC[C@H]32)C[C@@]2(CCCc3cc(Cl)ccc32)CO4)CC1 [Example 98, (1S,3′R,6′R,7′R,8′E,11′S,12′R)-6-chloro-7′-ethoxy-11′,12′-dimethyl-7′-((4-propyl-1-piperazinyl)methyl)-3,4-dihydro-2H,15′H-spiro[naphthalene-1,22′-[20]oxa[13]thia[1,14]diazatetracyclo [14.7.2.0~3,6~.0~19,24~]pentacosa[8,16,18,24]tetraen]-15′-one 13′,13′-dioxide] |  | 183 nM | 0.373 nM | 
13 | CO[C@]1(CN2CCN3C(=O)[C@@H](C)OC[C@@H]3C2)/C=C/C[C@H](C)[C@@H](C)S(=O)(=O)NC(=O)c2ccc3c(c2)N(C[C@@H]2CC[C@H]21)C[C@@]1(CCCc2cc(Cl)ccc21)CO3 [Example 144, (1S,3′R,6′R,7′R,8′E,11′S,12′R)-6-chloro-7′-methoxy-11′,12′-dimethyl-7′-(((3R,9aS)-3-methyl-4-oxohexahydropyrazino[2,1-c][1,4]oxazin-8(1H)-yl)methyl)-3,4-dihydro-2H,15′H-spiro[naphthalene-1,22′-[20]oxa[13]thia[1,14]diazatetracyclo [14.7.2.0~3,6~.0~19,24~]pentacosa[8,16,18,24]tetraen]-15′-one 13′,13′-dioxide] |  | 163 nM | 0.271 nM | 
14 | CO[C@@]1(CN2CCN(CC(F)F)CC2)/C=C/C[C@H](C)[C@@H](C)S(=O)(=O)NC(=O)c2ccc3c(c2)N(C[C@@H]2CC[C@H]21)C[C@@]1(CCCc2cc(Cl)ccc21)CO3 [Example 306, (1S,3′R,6′R,7′S,8′E,11′S,12′R)-6-chloro-7′-((4-(2,2-difluoroethyl)-1-piperazinyl)methyl)-7′-methoxy-11′,12′-dimethyl-3,4-dihydro-2H,15′H-spiro[naphthalene-1,22′-[20]oxa[13]thia[1,14]diazatetracyclo [14.7.2.0~3,6~.0~19,24~]pentacosa[8,16,18,24]tetraen]-15′-one 13′,13′-dioxide] |  | 246 nM | 0.282 nM | 
15 | C[C@@H]1[C@@H](C)C/C=C/[C@@](O)(C#CCCN(C)C)[C@@H]2CC[C@H]2CN2C[C@@]3(CCCc4cc(Cl)ccc43)COc3ccc(cc32)C(=O)NS1(=O)=O [Example 100309, (1S,3′R,6′R,7′S,8′E,11′S,12′R)-6-chloro-7′-(4-(dimethylamino)-1-butyn-1-yl)-7′-hydroxy-11′,12′-dimethyl-3,4-dihydro-2H,15′H-spiro[naphthalene-1,22′-[20]oxa[13]thia[1,14]diazatetracyclo [14.7.2.0~3,6~.0~19,24~]pentacosa[8,16,18,24]tetraen]-15′-one 13′,13′-dioxide] | 0.244 nM |  |  | IC50 [1, 7]: 385 nM
